Like-named read-outs stand apart in the source and are kept apart here.
Experiments:
PHP1 [1] = target: T1, PHP1 (Homo sapiens, UniProt Q9NRX4); experiment: pH-dependence of conversion of fluorogenic and chromogenic substrates by PHP1; type: biochemical; settings: for acceptance as substrate by PHP1: pH 5-9, 0.1 μM PHP1; for turnover rate by PHP1 in more alkaline media: pH above the maximum, up to pH 9
T1 sequence (Q9NRX4 1-125): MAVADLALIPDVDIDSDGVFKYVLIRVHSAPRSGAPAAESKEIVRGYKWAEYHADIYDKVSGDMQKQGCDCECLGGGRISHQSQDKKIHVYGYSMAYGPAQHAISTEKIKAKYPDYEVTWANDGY
Description: Because it is well known that the use of phospho fluorophores like DIFMUP, MUP, DDAO or FDP as phosphatase substrates have certain limitations due to the compatibility of the substrate pKa-values with the pH-optima of the respective phosphatase, the pH-dependence of the PHP1 reactivity towards the aforementioned fluorogenic substrates is to be determined. As shown in FIG. 1 the pH is varied from pH=5-9 in steps of 0.5 pH-units. In order to avoid undesired fluorescence flattening effects due to high absorption by the accumulating reaction product the initial reaction velocity is used as relative measure for the pH-dependence of PHP1-reactivity towards the selected substrate.
To start the reaction PHP1 was added from a pre dilution in the respective reaction buffer to yield a final concentration of 0.1 μM. The reaction was monitored by recording the increase in relative fluorescence at the respective fluorescence emission maxima (Fluoromax Gemini XL microplate reader).

PHP1 [2] = target: T1, PHP1; experiment: Kinetic analysis of the conversion of FDP and DiFMUP by PHP1; type: biochemical; settings: pH 7.0, 0.1 μM PHP1
Protocol: The KM-values for DiFMUP and FDP can be approximated by recording the initial reaction velocity in dependence of the substrate concentration, as observed by the increase in relative fluorescence at the respective fluorescence emission maxima upon addition of PHP1. […] This effect limits the range of substrate variation. For FDP concentrations >20 μM the signal quenching disturbs reaction rate measurements detrimentally. […] Measurements for DiFMUP are limited to concentrations below 500 μM.
To start the reaction PHP1 was added from a stock solution to a final concentration of 0.1 in μM. The reaction was monitored by recording the increase in relative fluorescence at the respective fluorescence emission maxima in an SLM fluorescence spectrometer. To allow for quantification the fluorescence signal was normalised using a standard curve recorded for a serial dilution of fully dephosphorylated DiFMUP and FDP respectively. All recordings were carried out at the same PM-voltage and integration time with correction for the relative signal gain.

[3] = target: T2, T-cell tyrosine phosphatase (Homo sapiens, UniProt P17706); settings: from literature (Kerby et al. 2001); cited from earlier work
T2 sequence (P17706 1-415): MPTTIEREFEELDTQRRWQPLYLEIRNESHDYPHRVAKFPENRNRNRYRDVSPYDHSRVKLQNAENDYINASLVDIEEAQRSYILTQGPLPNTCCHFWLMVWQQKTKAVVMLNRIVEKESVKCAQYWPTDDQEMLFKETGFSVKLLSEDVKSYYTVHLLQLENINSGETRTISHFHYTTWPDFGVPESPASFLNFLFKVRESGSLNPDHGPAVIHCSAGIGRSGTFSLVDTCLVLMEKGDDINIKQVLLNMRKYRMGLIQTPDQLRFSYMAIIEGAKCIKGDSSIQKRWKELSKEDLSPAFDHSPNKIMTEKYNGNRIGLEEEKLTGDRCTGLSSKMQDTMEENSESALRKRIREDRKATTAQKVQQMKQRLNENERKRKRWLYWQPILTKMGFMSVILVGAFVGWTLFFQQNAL

PHP1 [4] = target: T1, PHP1; experiment: Screening assay for inhibitors or activators of PHP1 with DiFMUP substrate; type: biochemical
Protocol: In order to test whether the phosphoamidase and protein phosphoamidase substrates of the present invention are suitable for the for identification of inhibitors or activators of these proteins, the activity of PHP1 was determined with the substrate DiFMUP in presence of bisperoxo-(bipyridine)-oxovanadate [(bp)V(bipy)], a well characterized inhibitor of protein phosphotyrosine phosphatase(FIG. 9). The inhibitor concentration varied from 0.01 to 30 μM, the enzyme concentration was kept at 0.1 μM and substrate concentration at 50 μM. After incubation for 15 min at room temperature the fluorescence was detected at 450 nm on excitation at 360 nm.
The reaction mixtures for inhibitor screening were prepared by serial 2 fold dilution of the inhibitor bpV(bipy) (Alexis Biochemicals San Diego) starting at 60 μM into 50 μl of the assay buffer consisting of 25 mM Hepes pH=7, 20 mM NaCl, 1 mM MgCl2, 0.01 mg/ml BSA. In a next step 50 μl of a solution of 0.3 μM PHP1 in assay buffer was added to each well and incubated for 5 min at room temperature. In order to initiate the reaction a pre dilution of 50 μM DiFMUP-substrate in assay-buffer was rapidly added to all wells. The reaction was monitored by recording the increase in relative fluorescence at the respective fluorescence emission maxima (Fluoromax Gemini XL microplate reader). The relative activity was calculated using the RFU derived from a control reaction without inhibitor.

[5] = 0.1 μM PHP1, 50 μM DiFMUP, inhibitor 0.01 to 30 μM

| Compound | acceptance as substrate by PHP1 (PHP1 [1]) | turnover rate by PHP1 in more alkaline media (PHP1 [1]) | further results |
| --- | --- | --- | --- |
| CC1(C)C2=C(Cl)C(=O)C(Cl)=CC2=Nc2ccc(OP(=O)(O)O)cc21 [DDAO, 9H-(1,3-dichloro-9,9-dimethyl-acridin-2-one-7-yl)phosphate] | accepts | stays relatively constant | – |
| Cc1cc(=O)oc2c(F)c(OP(=O)(O)O)c(F)cc12 [DiFMUP, 6,8-difluoro-4-methylum-belliferyl phosphate] | accepts | decrease in turnover rate | Km (PHP1 [2]; estimated from Lineweaver-Burk plot, read-out: KM-value for PHP1): > 1000 µM; Km [3]: 20 µM |
| O=[N+]([O-])c1ccc(OP(=O)(O)O)cc1 [pNPP, para-nitrophenol phosphate] | not recognised and processed by PHP1 at any pH | – | – |
| bisperoxo-(bipyridine)-oxovanadate [(bp)V(bipy)] | – | – | concentration showing inhibitory effect on PHP1 (PHP1 [4]; [5]): above 10 μM; inhibition of PHP1 activity (PHP1 [4]; [5]): reproducible and clearly dose-dependent inhibition; activation of PHP1 activity (PHP1 [4]; equimolar concentrations (0.1 μM PHP1), 50 μM DiFMUP): by a factor of two |
| fluorescein diphosphate [FDP] | accepts | second distinct maximum | Km (PHP1 [2]; non-linear curve fit, high uncertainty, read-out: Michaelis constant KM for PHP1): ~20 µM |
